Starred links: 1 amine or outer side, 2 acyl side, 3 side chain; linkers in the order of their positions; H or OH if unused. Non-standard residues stand in square brackets, D forms with d. Residues, ends and D or L forms follow the SMILES beside them. *: point of attachment. Hexanoyl(5S-NH,4S-OH,6-Ph) = O=C(CC[C@H](O)[C@H](Cc1ccccc1)N[*:1])[*:2]; Sta = CC(C)C[C@H](N)[C@@H](O)CC(=O)O; Isovaleryl = CC(C)CC(=O)*
Columns and labels:
[1] = target: cathepsin D isolated from the human liver (Homo sapiens (Human), UniProt P07339); experiment: In-vitro fluorescence assay for identification of cathepsin D inhibitors; format: biochemical; conditions: cathepsin D 1.4 nM, pH 5.5; values in E notation; read-out: Cath D IC50
Experimental: In order to identify modulators of cathepsin D activity, a continuous enzymatic test was carried out with a synthetic peptide which carries a fluorescent group (MCA=(7-methoxycoumarin-4-yl)acetyl) which is quenched by energy transfer from a Dpn (2,4 dinitrophenyl) group on the same molecule, in Greiner 384-well nb microtitre plates. Cleavage of the peptidic substrate by cathepsin D causes an increase in the fluorescence intensity. In order to determine the efficacy of substances, the time-dependent increase in the fluorescence intensity in the presence of the substance was compared with the time-dependent increase in fluorescence in the absence of substances. The reference substance used was pepstatin A (Sigma-Aldrich). The substrate used was MCA-GKPILFFRLK(Dnp)d-R—NH2 (Enzo Life Sciences, Lor-rach). The enzyme employed was cathepsin D isolated from the human liver (Sigma-Aldrich) in a final concentration of 1.4 nM. The test was carried out in 100 mM sodium acetate buffer, 1.25% (v/v) of DMSO, 0.25% (w/v) of Chaps, pH 5.5. 2 μl of each substance solution with serially diluted substance concentration were added to in each case 4 μl of cathepsin D solution and incubated at room temperature for 10 min. The reaction was started by addition of 2 μl of substrate solution (final concentration 5 μM). After carrying out a starting-point fluorescence measurement (excitation wavelength 340 nm/emission wavelength 450 nm) using an Envision multilabel reader (Perkin Elmer), the reaction was incubated at room temperature for 60 min. The amount of peptide fragment cleaved off during the reaction time was subsequently measured by determination of the increase in the fluorescence intensity at 450 nm (excitation wavelength 340 nm).
The IC50 values of the compounds according to the invention can be obtained from Table 2 from Example 1.

[2] = target: recombinant human renin (Homo sapiens (Human), UniProt P00797); experiment: In-vitro fluorescence assay for identification of renin-inhibitory activity; format: biochemical; conditions: renin 10 nM, pH 7.2
Experimental: In order to identify modulators of renin activity, a continuous enzymatic test was carried out with a synthetic peptide which carries a fluorescent group Edans (=(5-(aminoethyl)aminonaphthalenesulfonate) which is quenched by energy transfer from a Dabcyl (4′-dimethylaminoazobenzene-4-carboxylate) group on the same molecule, in Greiner 384-well microtitre plates. Cleavage of the peptidic substrate by renin causes an increase in the fluorescence intensity. In order to determine the efficacy of substances, the time-dependent increase in the fluorescence intensity in the presence of the substance was compared with the time-dependent increase in fluorescence in the absence of substances. The reference substance used was renin inhibitor 2 (Z-Arg-Arg-Pro-Phe-His-Sta-Ile-His N-Boc-Lys methyl ester Z) (Sigma-Aldrich). The substrate used was renin FRET substrate I (DABCYL-g-Abu-Ile-His-Pro-Phe-His-Leu-Val-Ile-His-Thr EDANS) (Anaspec, Fremont Calif.). The enzyme employed was recombinant human renin (Proteos, Kalamazoo, Mich.) in a final concentration of 10 nM. The test was carried out in 50 mM Mops buffer, 1.5% (v/v) of DMSO, 0.1% (w/v) of Igepal®, pH 7.2, 0.5% (w/v) of BSA. 2 μl of each substance solution with serially diluted substance concentration were added to in each case 4 μl of renin solution and incubated at room temperature for 15 min. The reaction was started by addition of 4 μl of substrate solution (final concentration 5 μM). After carrying out a starting-point fluorescence measurement (excitation wavelength 340 nm/emission wavelength 495 nm) using an Envision multilabel reader (Perkin Elmer), the reaction was incubated at 37° C. for 60 min. The amount of peptide fragment cleaved off during the reaction time was subsequently measured by determination of the increase in the fluorescence intensity at 495 nm (excitation wavelength 340 nm).

[3] = test system: rat knee joint; experiment: Anti-hyperalgesic effect in animals (carrageenan-injected rat knee joint, Hargreaves test); format: in vivo; conditions: intra-articular, 30 minutes before CAR
Experimental: In order to induce an inflammation reaction, a carrageenan solution (CAR, 1%, 50 μl) was injected intra-articularly on one side into a rat knee joint. The uninjected side was used for control purposes. Six animals per group were used. The threshold was determined by means of a micrometer screw (medial-lateral on the knee joint), and the thermal hyperalgesia was determined by means of a directed infrared light source by the Hargreaves method (Hargreaves et al., 1988) on the sole of the foot. […] Experimental description of thermal hyperalgesia (Hargreaves test): the experimental animal is placed in a plastic chamber on a quartz sheet. Before testing, the experimental animal is firstly given about 5-15 minutes time to familiarise itself with the environment. As soon as the experimental animal no longer moves so frequently after the familiarisation phase (end of the exploration phase), the infrared light source, whose focus is in the plane of the glass bottom, is positioned directly beneath the rear paw to be stimulated. […] Light reflected by the paw is recorded as long as the experimental animal sits still. Withdrawal of the paw interrupts this reflection, after which the infrared light source is switched off and the time from switching on to switching off is recorded. […]

[4] = test system: cartilage explant cultures; conditions: pH 5.5, explant cultures; cited from earlier work

Chain of cathepsin D isolated from the human liver (P07339 65-161): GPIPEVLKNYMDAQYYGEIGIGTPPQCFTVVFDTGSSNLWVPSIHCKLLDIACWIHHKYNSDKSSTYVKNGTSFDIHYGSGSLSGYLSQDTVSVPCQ
Chain of cathepsin D isolated from the human liver (P07339 169-412): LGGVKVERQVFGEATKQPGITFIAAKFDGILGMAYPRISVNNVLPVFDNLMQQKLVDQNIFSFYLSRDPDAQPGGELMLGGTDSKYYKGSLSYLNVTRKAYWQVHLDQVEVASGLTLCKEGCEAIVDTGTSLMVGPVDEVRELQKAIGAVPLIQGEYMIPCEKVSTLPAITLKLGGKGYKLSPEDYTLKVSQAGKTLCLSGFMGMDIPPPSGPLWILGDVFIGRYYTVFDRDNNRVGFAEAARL
Chain of recombinant human renin (P00797 67-406): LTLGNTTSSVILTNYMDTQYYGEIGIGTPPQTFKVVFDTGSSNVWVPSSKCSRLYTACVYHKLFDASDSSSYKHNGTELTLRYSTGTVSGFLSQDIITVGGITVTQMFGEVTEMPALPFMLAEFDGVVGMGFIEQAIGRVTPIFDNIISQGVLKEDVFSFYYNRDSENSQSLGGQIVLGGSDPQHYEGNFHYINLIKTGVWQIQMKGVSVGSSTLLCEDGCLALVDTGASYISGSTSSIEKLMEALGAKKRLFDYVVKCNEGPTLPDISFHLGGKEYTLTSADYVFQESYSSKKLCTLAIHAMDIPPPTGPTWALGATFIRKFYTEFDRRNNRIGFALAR

Structure (SMILES) | IC50 [1] [nM] | inhibition of autodigestion of the cartilage [4] | other results
CC[C@H](C)[C@H](NC(=O)CC[C@H](O)[C@H](Cc1ccccc1)NC(=O)[C@@H](NC(=O)[C@H](CC(C)C)NC(=O)CC(C)C)C(C)C)C(=O)N[C@H](C(=O)O)C(C)C [Compound A21, (S)-2-[(2S,3S)-2-((4S,5S)-4-Hydroxy-5-{(S)-3-methyl-2-[(S)-4-methyl-2-(3-methylbutyrylamino)pentanoylamino]butyrylamino}-6-phenylhexanoyl-amino)-3-methylpentanoylamino]-3-methylbutyric acid] (Isovaleryl-LV[Hexanoyl(5S-NH,4S-OH,6-Ph)]IV-OH) | 24 |  | IC50 ([2]; values in E notation): 12000 nM
CC[C@H](C)[C@H](NC(=O)CC[C@H](O)[C@H](Cc1ccccc1)NC(=O)[C@@H](NC(=O)Cc1cccc(OC(F)(F)F)c1)C(C)C)C(=O)N[C@H](C(=O)O)C(C)C [Compound A22, (S)-2-[(2S,3S)-2-((4S,5S)-4-Hydroxy-5-{(S)-3-methyl-2-[2-(3-trifluoro-methoxyphenyl)acetylamino]butyrylamino}-6-phenylhexanoylamino)-3-methylpentanoylamino]-3-methylbutyric acid] | 350 |  | IC50 [2]: > 30000 nM
C[C@]12C=CC(=O)C=C1CC[C@H]1[C@@H]3C[C@@H](O)[C@](O)(C(=O)CO)[C@@]3(C)C[C@H](O)[C@@]12F [TAC, Triamcinolone] |  |  | reduction of CAR-induced swelling [3]: capable of reducing the CAR-induced swelling
CC(C)CC(=O)N[C@H](C(=O)N[C@H](C(=O)N[C@@H](CC(C)C)[C@@H](O)CC(=O)N[C@@H](C)C(=O)N[C@@H](CC(C)C)[C@@H](O)CC(=O)O)C(C)C)C(C)C [pepstatin] (Isovaleryl-VV[Sta]A[Sta]-OH) |  | inhibited virtually completely | 
CC(C)c1nc(CN(C)C(=O)N[C@H](C(=O)N[C@@H](Cc2ccccc2)C[C@H](O)[C@H](Cc2ccccc2)NC(=O)OCc2cncs2)C(C)C)cs1 [ritonavir] |  | inhibited virtually completely | 

— US10202418B2, “Hydroxy-ethylene derivatives for the treatment of arthrosis” (MERCK PATENT GMBH, priority 2013, dated 2019)
